Laboratory results from patent US9469650B2, “Melampomagnolide B derivatives” (BOARD OF TRUSTEES OF THE UNIVERSITY OF ARKANSAS, priority 2013, dated 2016).
Read-outs that look alike come from different tables or passages of the source.

What was measured:
NCI-H226 = experiment: panel of 60 human tumor cell lines, growth inhibition (Non-Small Cell Lung Cancer); conditions: NCI-H226
SF-295 = experiment: panel of 60 human tumor cell lines, growth inhibition (CNS Cancer); conditions: SF-295
786-0 = experiment: panel of 60 human tumor cell lines, growth inhibition (Renal Cancer); conditions: 786-0
HT29 = experiment: panel of 60 human tumor cell lines, growth inhibition (Colon Cancer); conditions: HT29
TK-10 = experiment: panel of 60 human tumor cell lines, growth inhibition (Renal Cancer); conditions: TK-10
NCI-H460 = experiment: panel of 60 human tumor cell lines, growth inhibition (Non-Small Cell Lung Cancer); conditions: NCI-H460
HCC-2998 = experiment: panel of 60 human tumor cell lines, growth inhibition (Colon Cancer); conditions: HCC-2998
DU-145 = experiment: panel of 60 human tumor cell lines, growth inhibition (Prostate Cancer); conditions: DU-145
HS 578T = experiment: panel of 60 human tumor cell lines, growth inhibition (Breast Cancer); conditions: HS 578T
BT-549 = experiment: as above; conditions: BT-549
SK-OV-3 = experiment: panel of 60 human tumor cell lines, growth inhibition (Ovarian Cancer); conditions: SK-OV-3
IGROV1 = experiment: as above; conditions: IGROVI
SNB-19 = experiment: panel of 60 human tumor cell lines, growth inhibition (CNS Cancer); conditions: SNB-19
HOP-62 = experiment: panel of 60 human tumor cell lines, growth inhibition (Non-Small Cell Lung Cancer); conditions: HOP-62
U251 = experiment: panel of 60 human tumor cell lines, growth inhibition (CNS Cancer); conditions: U251
ACHN = experiment: panel of 60 human tumor cell lines, growth inhibition (Renal Cancer)
NCI-H522 = experiment: panel of 60 human tumor cell lines, growth inhibition (Non-Small Cell Lung Cancer); conditions: NCI-H522
NCI-H23 = experiment: panel of 60 human tumor cell lines, growth inhibition (Non-Small Cell Lung Cancer)

For C=C1C(=O)O[C@H]2[C@H]1CC/C(COC(=O)NC)=C\CC[C@@]1(C)O[C@@H]21 [JVM 2-57], the “Percent Growth” value (NCI-H226; Log10 Concentration −4.0) was −52%, the “Percent Growth” value (NCI-H226; Log10 Concentration −5.0) was 49% and the “Percent Growth” value (NCI-H226; Log10 Concentration −6.0) was 86%. The “Percent Growth” value (NCI-H226; Log10 Concentration −7.0) was 101%, the “Percent Growth” value (NCI-H226; Log10 Concentration −8.0) was 92% and the GI50 (NCI-H226; NCI five dose) was 9.29 µM. For the same compound, the TGI (NCI-H226; NCI five dose) was 3.06E−5, the “Percent Growth” value (SF-295; Log10 Concentration −4.0) was −30% and the “Percent Growth” value (SF-295; Log10 Concentration −5.0) was 76%. For the same compound, the “Percent Growth” value (SF-295; Log10 Concentration −6.0) was 93%, the “Percent Growth” value (SF-295; Log10 Concentration −7.0) was 90% and the “Percent Growth” value (SF-295; Log10 Concentration −8.0) was 97%. The GI50 (SF-295; NCI five dose) was 17.5 µM, the TGI (SF-295; NCI five dose) was 5.21E−5 and the “Percent Growth” value (786-0; Log10 Concentration −4.0) was −88%. For the same compound, the “Percent Growth” value (786-0; Log10 Concentration −5.0) was 38%, the “Percent Growth” value (786-0; Log10 Concentration −6.0) was 93% and the “Percent Growth” value (786-0; Log10 Concentration −7.0) was 90%. For the same compound, the “Percent Growth” value (786-0; Log10 Concentration −8.0) was 96%, the GI50 (786-0; NCI five dose) was 5.94 µM and the TGI (786-0; NCI five dose) was 1.99E−5. For the same compound, the “Percent Growth” value (HT29; Log10 Concentration −4.0) was −73%, the “Percent Growth” value (HT29; Log10 Concentration −5.0) was 21% and the “Percent Growth” value (HT29; Log10 Concentration −6.0) was 104%. For the same compound, the “Percent Growth” value (HT29; Log10 Concentration −7.0) was 96%, the “Percent Growth” value (HT29; Log10 Concentration −8.0) was 101% and the GI50 (HT29; NCI five dose) was 4.5 µM. For the same compound, the TGI (HT29; NCI five dose) was 1.68E−5, the “Percent Growth” value (TK-10; Log10 Concentration −4.0) was −95% and the “Percent Growth” value (TK-10; Log10 Concentration −5.0) was −5%. For the same compound, the “Percent Growth” value (TK-10; Log10 Concentration −6.0) was 96%, the “Percent Growth” value (TK-10; Log10 Concentration −7.0) was 98% and the “Percent Growth” value (TK-10; Log10 Concentration −8.0) was 94%. For the same compound, the GI50 (TK-10; NCI five dose) was 2.86 µM, the TGI (TK-10; NCI five dose) was 8.97E−6 and the “Percent Growth” value (NCI-H460; Log10 Concentration −4.0) was −65%. The “Percent Growth” value (NCI-H460; Log10 Concentration −5.0) was 78%, the “Percent Growth” value (NCI-H460; Log10 Concentration −6.0) was 101% and the “Percent Growth” value (NCI-H460; Log10 Concentration −7.0) was 103%. The “Percent Growth” value (NCI-H460; Log10 Concentration −8.0) was 103%, the GI50 (NCI-H460; NCI five dose) was 15.6 µM and the TGI (NCI-H460; NCI five dose) was 3.49E−5. The “Percent Growth” value (HCC-2998; Log10 Concentration −4.0) was −81%, the “Percent Growth” value (HCC-2998; Log10 Concentration −5.0) was 65% and the “Percent Growth” value (HCC-2998; Log10 Concentration −6.0) was 107%. For the same compound, the “Percent Growth” value (HCC-2998; Log10 Concentration −7.0) was 91%, the “Percent Growth” value (HCC-2998; Log10 Concentration −8.0) was 94% and the GI50 (HCC-2998; NCI five dose) was 12.7 µM. The TGI (HCC-2998; NCI five dose) was 2.80E−5, the “Percent Growth” value (DU-145; Log10 Concentration −4.0) was −97% and the “Percent Growth” value (DU-145; Log10 Concentration −5.0) was 19%. The “Percent Growth” value (DU-145; Log10 Concentration −6.0) was 93%, the “Percent Growth” value (DU-145; Log10 Concentration −7.0) was 103% and the “Percent Growth” value (DU-145; Log10 Concentration −8.0) was 104%. For the same compound, the GI50 (DU-145; NCI five dose) was 3.78 µM, the TGI (DU-145; NCI five dose) was 1.45E−5 and the “Percent Growth” value (HS 578T; Log10 Concentration −4.0) was 7%. For the same compound, the “Percent Growth” value (HS 578T; Log10 Concentration −5.0) was 65%, the “Percent Growth” value (HS 578T; Log10 Concentration −6.0) was 87% and the “Percent Growth” value (HS 578T; Log10 Concentration −7.0) was 92%. The “Percent Growth” value (HS 578T; Log10 Concentration −8.0) was 91%, the GI50 (HS 578T; NCI five dose) was 18.4 µM and the TGI (HS 578T; NCI five dose) was over 1.00E−4. The “Percent Growth” value (BT-549; Log10 Concentration −4.0) was −96%, the “Percent Growth” value (BT-549; Log10 Concentration −6.0) was 74% and the “Percent Growth” value (BT-549; Log10 Concentration −7.0) was 86%. The “Percent Growth” value (BT-549; Log10 Concentration −8.0) was 105%, the GI50 (BT-549; NCI five dose) was 2.13 µM and the TGI (BT-549; NCI five dose) was 9.96E−6. For the same compound, the “Percent Growth” value (SK-OV-3; Log10 Concentration −4.0) was −26%, the “Percent Growth” value (SK-OV-3; Log10 Concentration −5.0) was 91% and the “Percent Growth” value (SK-OV-3; Log10 Concentration −6.0) was 105%. For the same compound, the “Percent Growth” value (SK-OV-3; Log10 Concentration −7.0) was 90%, the “Percent Growth” value (SK-OV-3; Log10 Concentration −8.0) was 101% and the GI50 (SK-OV-3; NCI five dose) was 22.4 µM. For the same compound, the TGI (SK-OV-3; NCI five dose) was 5.96E−5, the “Percent Growth” value (IGROV1; Log10 Concentration −4.0) was −57% and the “Percent Growth” value (IGROV1; Log10 Concentration −5.0) was 8%. The “Percent Growth” value (IGROV1; Log10 Concentration −6.0) was 102%, the “Percent Growth” value (IGROV1; Log10 Concentration −7.0) was 101% and the “Percent Growth” value (IGROV1; Log10 Concentration −8.0) was 100%. The GI50 (IGROV1; NCI five dose) was 3.58 µM, the TGI (IGROV1; NCI five dose) was 1.32E−5 and the “Percent Growth” value (SNB-19; Log10 Concentration −4.0) was −38%. For the same compound, the “Percent Growth” value (SNB-19; Log10 Concentration −5.0) was 74%, the “Percent Growth” value (SNB-19; Log10 Concentration −6.0) was 92% and the “Percent Growth” value (SNB-19; Log10 Concentration −7.0) was 95%. For the same compound, the “Percent Growth” value (SNB-19; Log10 Concentration −8.0) was 94%, the GI50 (SNB-19; NCI five dose) was 16.4 µM and the TGI (SNB-19; NCI five dose) was 4.59E−5. For the same compound, the “Percent Growth” value (HOP-62; Log10 Concentration −4.0) was −86%, the “Percent Growth” value (HOP-62; Log10 Concentration −5.0) was 72% and the “Percent Growth” value (HOP-62; Log10 Concentration −6.0) was 92%. For the same compound, the “Percent Growth” value (HOP-62; Log10 Concentration −7.0) was 86%, the “Percent Growth” value (HOP-62; Log10 Concentration −8.0) was 95% and the GI50 (HOP-62; NCI five dose) was 13.9 µM. The TGI (HOP-62; NCI five dose) was 2.87E−5, the “Percent Growth” value (U251; Log10 Concentration −4.0) was −100% and the “Percent Growth” value (U251; Log10 Concentration −5.0) was 81%. The “Percent Growth” value (U251; Log10 Concentration −6.0) was 92%, the “Percent Growth” value (U251; Log10 Concentration −7.0) was 97% and the “Percent Growth” value (U251; Log10 Concentration −8.0) was 99%. For the same compound, the GI50 (U251; NCI five dose) was 14.9 µM, the TGI (U251; NCI five dose) was 2.81E−5 and the “Percent Growth” value (ACHN; Log10 Concentration −4.0) was −83%. For the same compound, the “Percent Growth” value (ACHN; Log10 Concentration −5.0) was 7%, the “Percent Growth” value (ACHN; Log10 Concentration −6.0) was 84% and the “Percent Growth” value (ACHN; Log10 Concentration −7.0) was 93%. The “Percent Growth” value (ACHN; Log10 Concentration −8.0) was 98%, the GI50 (ACHN; NCI five dose) was 2.78 µM and the TGI (ACHN; NCI five dose) was 1.19E−5. For the same compound, the “Percent Growth” value (NCI-H522; Log10 Concentration −4.0) was −74%, the “Percent Growth” value (NCI-H522; Log10 Concentration −5.0) was −73% and the “Percent Growth” value (NCI-H522; Log10 Concentration −6.0) was 68%. The “Percent Growth” value (NCI-H522; Log10 Concentration −7.0) was 87%, the “Percent Growth” value (NCI-H522; Log10 Concentration −8.0) was 89% and the GI50 (NCI-H522; NCI five dose) was 1.33 µM. For the same compound, the TGI (NCI-H522; NCI five dose) was 3.02E−6, the “Percent Growth” value (HL-60(TB); Log10 Concentration −4.0) was −55% and the “Percent Growth” value (HL-60(TB); Log10 Concentration −5.0) was −11%. The “Percent Growth” value (HL-60(TB); Log10 Concentration −6.0) was 84%, the “Percent Growth” value (HL-60(TB); Log10 Concentration −7.0) was 91% and the “Percent Growth” value (HL-60(TB); Log10 Concentration −8.0) was 96%. The GI50 (HL-60(TB); NCI five dose) was 2.28 µM, the TGI (HL-60(TB); NCI five dose) was 7.73E−6 and the CC50 (HL-60(TB); read-out: LC50, NCI five dose) was 77.2 µM. For the same compound, the TGI (NCI-H23; NCI five dose) was 2.04E−5, the “Percent Growth” value (NCI-H23; NCI-H 3, Log10 Concentration −4.0) was −68% and the “Percent Growth” value (NCI-H23; NCI-H 3, Log10 Concentration −5.0) was 30%. The “Percent Growth” value (NCI-H23; NCI-H 3, Log10 Concentration −6.0) was 92%, the “Percent Growth” value (NCI-H23; NCI-H 3, Log10 Concentration −7.0) was 95% and the “Percent Growth” value (NCI-H23; NCI-H 3, Log10 Concentration −8.0) was 94%. For the same compound, the GI50 (NCI-H23; NCI-H 3, NCI five dose) was 4.79 µM.
